# In patent US8507559B2, “Cyclohexenyl modulators of chemokine receptor activity” (Bristol-Myers Squibb Company, priority 2008, dated 2013):
# Molecular target: T1, CCR2 (Homo sapiens, UniProt P41597)
# T1 construct: THP-1 human monocytic leukemic cell line, which expresses endogenous CCR2; endogenous in cells; host or cells: human peripheral blood mononuclear cells, human monocytes or THP-1 cells
# T1 sequence (P41597 1-360 isoform P41597-2): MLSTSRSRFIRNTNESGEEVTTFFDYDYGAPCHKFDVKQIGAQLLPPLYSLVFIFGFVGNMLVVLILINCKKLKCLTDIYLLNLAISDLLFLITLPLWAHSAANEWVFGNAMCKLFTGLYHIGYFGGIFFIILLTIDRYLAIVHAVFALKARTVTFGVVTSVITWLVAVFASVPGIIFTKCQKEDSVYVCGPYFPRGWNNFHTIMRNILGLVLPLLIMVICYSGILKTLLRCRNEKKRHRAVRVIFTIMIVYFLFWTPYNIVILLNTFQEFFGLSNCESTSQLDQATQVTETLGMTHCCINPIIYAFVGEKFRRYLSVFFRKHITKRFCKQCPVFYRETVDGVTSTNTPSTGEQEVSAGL
# Assay: CCR2 binding: antagonism of 125I-MCP-1 binding (human PBMC / THP-1 whole cell)
# Settings: n = 1 unless otherwise noted
# Protocol: Antagonism of MCP-1 Binding to Human PBMC
# Millipore filter plates (#MABVN1250) are treated with 100 μl of binding buffer (0.5% bovine serum albumin, 20 mM HEPES buffer and 5 mM magnesium chloride in RPMI 1640 media) for thirty minutes at room temperature. To measure binding, 50 μl of binding buffer, with or without a known concentration compound, is combined with 50 μl of ^125-I labeled human MCP-1 (to give a final concentration of 150 pM radioligand) and 50 μl of binding buffer containing 5×10^5 cells. Cells used for such binding assays can include human peripheral blood mononuclear cells isolated by Ficoll-Hypaque gradient centrifugation, human monocytes (Weiner et al., J. Immunol. Methods. 1980, 36, 89), or the THP-1 cell line which expresses the endogenous receptor. The mixture of compound, cells and radioligand are incubated at room temperature for thirty minutes. Plates are placed onto a vacuum manifold, vacuum applied, and the plates washed three times with binding buffer containing 0.5M NaCl. The plastic skirt is removed from the plate, the plate allowed to air dry, the wells punched out and counted. The percent inhibition of binding is calculated using the total counts obtained in the absence of any competing compound and the background binding determined by addition of 100 nM MCP-1 in place of the test compound.
# THP-1 Monocytic Cell Binding: Whole Cell-based Assay
# The human CCR2 binding assay was also established with the THP-1 human monocytic leukemic cell line, which expresses endogenous CCR2, using ^125I-human MCP-1 as the tracer ligand. Radioligand competition binding assays were used for assessment of binding affinity of test compounds to the CCR2 receptor. For radioligand competition studies, 100 μl containing 2.5×10^5 THP-1 cells/well (in assay buffer containing 50 mM HEPES, pH7.4, 5 mM MgCl2, 1 mM CaCl2 and 0.5% BSA) were added to 96-well assay plates containing the test compounds in 3-fold serial dilution, with final concentrations ranging from 5 μM to 100 pM. Subsequently, 50 μl ^125I-MCP-1 radioligand at a final concentration of 0.2 nM in assay buffer were added to the reaction. After a 90 minute incubation period at room temperature, the binding reaction was terminated by harvesting on GF/B filter plates (PerkinElmer Cat. No. 6005177) followed by washing with ice-cold wash buffer (50 mM HEPES, pH 7.4, 0.1% BSA, 0.5 M NaCl) to remove unbound ligand. After washing, the plate was dried for 45 minutes at 60° C. followed by addition of 40 μl MicroScint 20 scintillation fluid, sealed and analyzed by the Packard TopCount reader. Non-specific binding was determined in the presence of 10 μM (a molar excess of 5000 fold) of an in-house CCR2 small molecule antagonist (CCR2 IC50=2 nM). Specific binding of ^125I-MCP-1 was calculated as the difference between total and non-specific binding. The competition data was plotted as a percentage inhibition of radioligand specific bound in the absence of test compound (percent of total signal). After correcting for non-specific binding, IC50 values were determined. The IC50 is defined as the concentration of test compound required to reduce ^125I-MCP-1 specific binding by 50% and was calculated using the four parameter logistic equation to fit the normalized data.
row,Compound,Ki
1,"C[C@@H]1CC=C(C(=O)NS(=O)(=O)C(F)(F)F)[C@@](C)(c2ccc(Cl)c(Cl)c2)C1 (racemic) [Example 3-02, (4RS,6RS)-6-(3,4-dichlorophenyl)-4,6-dimethyl-N-(trifluoromethylsulfonyl)-cyclohex-1-enecarboxamide]",6600 nM
2,"C[C@@H]1CC=C(C(=O)NS(=O)(=O)c2ccccc2)[C@@](C)(c2ccc(Cl)c(Cl)c2)C1 (racemic) [Example 3-03, (4RS,6RS)-6-(3,4-dichlorophenyl)-4,6-dimethyl-N-(phenylsulfonyl)cyclohex-1-enecarboxamide]",150 nM
3,"CC1=C(C(=O)O)[C@@](C)(c2ccc(Cl)c(Cl)c2)C[C@H](C)C1 (racemic) [Example 6, (4RS,6RS)-6-(3,4-dichlorophenyl)-2,4,6-trimethylcyclohex-1-enecarboxylic acid]",580 nM
4,"CC(C)(C)OC[C@@H]1CC=C(C(=O)O)[C@@](C)(c2ccc(Cl)c(C(F)(F)F)c2)C1 (racemic) [Example 10, (4RS,6RS)-4-(tert-butoxymethyl)-6-(4-chloro-3-(trifluoromethyl)phenyl)-6-methylcyclohex-1-enecarboxylic acid]",6200 nM
5,"C[C@H]1CC=C(C(=O)O)[C@](C)(c2ccc(Cl)c(C(F)(F)F)c2)C1 [Example 4-01a, (4S,6S)-6-(4-chloro-3-(trifluoromethyl)-phenyl)-4,6-dimethylcyclohex-1-enecarboxylic acid]",9 nM
6,"C[C@@H]1CC=C(C(=O)O)[C@@](C)(c2ccc(Cl)c(C(F)(F)F)c2)C1 [Example 4-01b, (4R,6R)-6-(4-chloro-3-(trifluoromethyl)phenyl)-4,6-dimethylcyclohex-1-enecarboxylic acid]",4500 nM
7,"C[C@@H]1CC=C(C(=O)O)[C@@](C)(c2ccc(Cl)c(Cl)c2)C1 [Example 4-02b, (4R,6R)-6-(3,4-dichlorophenyl)-4,6-dimethylcyclohex-1-enecarboxylic acid]",5800 nM

# The remaining lines, values ahead:
row,Ki,Compound
1,1000 nM,"CC1=C(C(=O)O)[C@@](O)(c2ccc(Cl)c(Cl)c2)C[C@H](C)C1 (racemic) [Example 5, (4RS,6SR)-6-(3,4-dichlorophenyl)-6-hydroxy-2,4,-dimethylcyclohex-1-enecarboxylic acid]"
2,210 nM,"C[C@]1(c2ccc(Cl)c(C(F)(F)F)c2)C[C@H](CO)CC=C1C(=O)O (racemic) [Example 7, (4RS,6RS)-6-(4-chloro-3-(trifluoromethyl)-phenyl)-4-(hydroxymethyl)-6-methylcyclohex-1-enecarboxylic acid]"
3,5500 nM,"CC(=O)NC[C@@H]1CC=C(C(=O)O)[C@@](C)(c2ccc(Cl)c(C(F)(F)F)c2)C1 (racemic) [Example 11, (4RS,6RS)-4-(acetamidomethyl)-6-(4-chloro-3-(trifluoromethyl)phenyl)-6-methylcyclohex-1-enecarboxylic acid]"
4,2500 nM,"C[C@]1(c2ccc(Cl)c(C(F)(F)F)c2)C[C@H](OCc2ccccc2)CC=C1C(=O)O (racemic) [Example 12, (4RS,6RS)-4-(benzyloxy)-6-(4-chloro-3-(trifluoromethyl)phenyl)-6-methylcyclohex-1-enecarboxylic acid]"
5,10000 nM,"COc1ccccc1C1(C)CCCC=C1C(=O)O (centres unmarked) [Example 1-07, 6-(2-methoxyphenyl)-6-methyl methylcyclohex-1-enecarboxylic acid]"
6,36 nM,"C[C@H]1CC=C(C(=O)O)[C@](C)(c2ccc(Cl)c(Cl)c2)C1 [Example 4-02a, (45,65)-6-(3,4-dichlorophenyl)-4,6-dimethylcyclohex-1-enecarboxylic acid]"
7,310 nM,"(4RS,6RS)-6-(4-chloro-3-(trifluoromethyl)-phenyl)-4-(hydroxymethyl)-6-methylcyclohex-1-enecarboxylic acid [Example 9]"
